Entries after “also recorded” stand apart in the source; their conditions may differ. Ends that are not written are not given here. * marks the point of attachment. FITC = O=C1OC2(c3ccc(O)cc3Oc3cc(O)ccc32)c2ccc(NC(=S)*)cc21
Tests used:
[1] = test system: PPC1 orthotopic xenografts; experiment: Targeted proapoptotic peptide treatment of mice with PPC1 orthotopic xenografts; type: in vivo; conditions: 100 μg/dose/mouse biweekly i.v., three weeks
Procedure: (§1) The 293T cells were transfected with plasmids encoding CXCR4 (Helbig et al., 2003) or VEGFR2 (Borges et al., 2000) using FuGene 6 transfection reagent (Roche Diagnostics, Indianapolis, Ind.). Briefly, plasmid (10 μg) was mixed with 900 μl of serumfree DMEM and 50 μl of FuGene and incubated for 15 min at room temperature before adding the mixture to the cells. The cells were detached using EDTA after 48 hrs post transfection and washed with PBS containing 1% BSA. Phage (5×10^9 pfu) were incubated with the transfected cells and bound phage were rescued and titrated. For competitive binding assay, the cognate peptide (150 μg/ml) or antibody (50 μg/ml) was added during incubating of the phage with cells. Targeted proapoptotic peptide treatment of tumor-bearing mice Prostate cancer model. Orthotopic xenografted prostate tumors were established by injecting 1×10^6 PPC1 human prostate cancer cells into the mouse prostate. Fifteen days post inoculation, the mice were intravenously injected with D(KLAKLAK)2-CREAGRKAC (SEQ ID NO:41), an equimolar mixture of D(KLAKLAK)2 (SEQ ID NO:19) and CREAGRKAC (SEQ ID NO:6), or PBS. Biweekly injections of 100 μg/dose/mouse were given for three weeks. Melanoma model. Nude BALB/c mice were subcutaneously injected with 1×10^6 C8161 human melanoma cells. Treatment started when mean tumor volumes reached about 100 mm3. Mice with size-matched tumors were randomized into three groups. The therapeutic group received a chimera of tumor homing peptide with the proapoptotic motif (D(KLAKLAK)2-CLSDCGKRKC; SEQ ID NO:42). The control groups received an equimolar mixture of CLSDGKRKC (SEQ ID NO:4) and D(KLAKLAK)2 (SEQ ID NO:19), or PBS alone. The tumor-bearing mice were intravenously injected with 200 μg/dose/mouse once a week for three weeks. The mice were monitored for weight loss, and tumors were dissected and weighed at the termination of the experiment. Histological analysis was performed to evaluate the density of tumor lymphatics and blood vessels. The animal experiments reported here were approved by The Burnham Institute Animal Research Committee.

[2] = test system: K14-HPV16/E2 cervical tumors; experiment: In vivo phage homing to K14-HPV16/E2 cervical tumors; set-up: species or system mouse; conditions: for phage homing to K14-HPV16/E2 cervical tumors (in words): i.v. injected phage
Procedure: (§2) The following cell lines were maintained in DMEM supplemented with 10% FCS: C8161 human melanoma, MDA-MB-435 human breast cancer, KRIB human osteosarcoma, and human prostate cancer cells PPC1, DU145. LNCaP human prostate cancer cell line was grown in RPMI 1640 medium with 10 mM HEPES, 1 mM sodium pyruvate and 1.5 g/L sodium bicarbonate supplemented with 10% FCS. M12 human prostate cancer cell line was cultured in RPMI 1640 with 5 μg/ml insulin-transferrin-sodium selenite (ITS), 2.5 μg/ml fungizone, 50 μg/ml gentamycin, 0.2 μM dexamethasone, 10 ng/ml epidermal growth factor (EGF), and 5% FCS (Bae et al., 1998). To produce tumors, nude BALB/c and C56BL/6 mice were subcutaneously (C8161, KRIB, and PPC1) or orthotopically ([…], PPC1, DU145, M12, and LNCaP) injected with 1×10^6 tumor cells. Transgenic mouse tumor models included TRAMP prostate cancer, MMTV-PyMT breast cancer, and K14-HPV16 cervical cancer. To initiate cervical carcinogenesis, female K14-HPV16 mice (Arbeit et al., 1994) were treated with 17β-estradiol (E2; (Arbeit et al., 1996; Giraudo et al., 2004). Briefly, one-month-old virgin female transgenic (heterozygous K14-HPV16, 1203#1) and nontransgenic (FVB/n) mice were anesthetized with isoflurane, and continuous release pellets that deliver E2 at doses of 0.05 mg over 60 days (Innovative Research of America, Sarasota, Fla., USA) were implanted subcutaneously in the dorsal back skin. Subsequent pellets were implanted at 3 and 5 months of age for a total of 6 months of hormone treatment. K14-HPV16 mice were maintained in the FVB/n background (FVB/n; The Jackson Laboratory). The mice were maintained in accordance with the University of California, San Francisco (UCSF) institutional guidelines governing the care of laboratory mice. The animal experimentation was approved by Animal Research Committees at UCSF or The Burnham Institute.
(§3) In vivo homing specificity of phage was tested as described (Hoffman, 2004). Briefly, mice bearing tumors were anesthetized and intravenously injected with 5×10^9 pfu of phage. After 7 min, the mice were perfused through the heart with PBS containing 0.5% BSA. The tumor and control organs were dissected from each mouse and the phage were rescued and tittered. For histology analysis, the mice were perfused with 4% PFA 30 min after the injection of phage. Tissues were embedded in Tissue-Tek O.C.T. and 5 μm sections were prepared for phage immunostaining.

[3] = test system: MDA-MB-435 orthotopic xenografts; experiment: In vivo phage homing to MDA-MB-435 orthotopic xenografts; set-up: species or system mouse; conditions: for phage homing to MDA-MB-435 tumors (in words): i.v. injected phage
Procedure: as §2, §3

CXCR4 = target: T1, CXCR4 (Homo sapiens, UniProt P61073); experiment: Phage binding to CXCR4-transfected 293T cells; conditions: 293T cells
T1 construct: expressed in transfected cells; host or cells: 293T cells, transient transfection with FuGene 6
T1 sequence (P61073 whole entry, species assumed): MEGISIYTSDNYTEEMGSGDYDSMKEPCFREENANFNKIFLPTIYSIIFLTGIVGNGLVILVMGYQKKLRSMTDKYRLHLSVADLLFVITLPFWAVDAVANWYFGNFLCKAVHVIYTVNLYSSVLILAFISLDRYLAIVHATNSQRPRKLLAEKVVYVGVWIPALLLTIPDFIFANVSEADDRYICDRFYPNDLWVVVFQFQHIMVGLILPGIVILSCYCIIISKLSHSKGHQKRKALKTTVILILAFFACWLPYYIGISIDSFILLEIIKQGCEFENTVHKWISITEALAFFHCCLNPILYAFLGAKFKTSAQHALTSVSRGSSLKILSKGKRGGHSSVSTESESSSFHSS
Procedure: as §1

normal tissues = experiment: In vivo phage homing to normal and control tissues; set-up: species or system mouse; conditions: i.v. injected phage
Procedure: as §3

K14-HPV16 skin cancer = experiment: In vivo homing to K14-HPV16 skin cancer; set-up: species or system mouse; conditions: i.v. injection, K14-HPV16 mice
Procedure: as §2, §3

[4] = test system: K14-HPV16/E2 cervical dysplasia; experiment: In vivo phage homing to K14-HPV16/E2 cervical dysplasia (CIN-3); set-up: species or system mouse; conditions: for phage homing to K14-HPV16/E2 pre-malignant cervical lesions (in words): i.v. injected phage
Procedure: as §2, §3

[5] = test system: cell suspensions prepared from C8161 tumors; experiment: Phage binding to cell suspensions prepared from C8161 tumors; type: cell-based, mouse; conditions: phage clone, ex vivo
C8161 xenografts = experiment: In vivo phage homing to C8161 xenograft tumors; set-up: species or system mouse; conditions: i.v. injected phage, C8161 xenograft mice
Procedure: as §2, §3

TRAMP PIN lesions = experiment: In vivo phage homing to TRAMP pre-malignant (PIN) lesions; set-up: species or system mouse; conditions: phage clones tested in vivo individually
Procedure: as §2, §3

[6] = test system: cell suspension derived from pre-malignant prostate lesions; experiment: Phage binding to cell suspension derived from pre-malignant prostate lesions; type: cell-based, mouse; conditions: phage clones
Procedure: (§4) An NNK-encoded CX7C library display on T7Select415-1 phage (Novagen) was prepared as previously described (Laakkonen et al., 2002). Phage selection and validation have been described (Hoffman, 2004). A two-step procedure was designed for the selection of peptides targeting the tumor lymphatic vessels of pre-malignant prostate lesions and prostate tumor. First, the phage library was incubated with cells derived from normal prostate to subtract the phage that bind to normal prostate. Second, the anti-podoplanin magnetic beads were used to isolate lymphatic endothelial cells. 2-3 rounds of ex vivo selection and 2-3 rounds of in vivo selections were performed. For the ex vivo selections, cell suspensions were prepared from normal prostates of tumor-free littermates of TRAMP mice, pre-malignant prostates of 14- to 16-week-old TRAMP mice, and tumor tissues of 25- to 28-week-old TRAMP mice. Collagenase IA (1 mg/ml, Sigma) was used to disperse the tissues. About 1×10^7 normal prostate cells were incubated at 4° C. for 3 hrs with […] plaque forming units (pfu) of T7 phage displaying a CX7C peptide library. The samples were centrifuged at 1200 rpm for 10 min, the supernatant (the normal prostate-subtracted phage library) was recovered and then incubated overnight at 4° C. with 5×10^7 cells derived from pre-malignant prostate tissue or prostate tumor. The cells were washed to remove unbound phage, incubated with rat anti-mouse podoplanin for 45 min at 4° C., and washed three times with cold PBS containing 0.5% BSA. Podoplanin-positive cells were then isolated using M450 sheep anti-rat IgG Dynabeads (M450; Dynal, Oslo, Norway). Phage that bound to the podoplanin-positive cell population were rescued and amplified in E. coli. In vivo phage library screening was performed as described (Laakkonen et al., 2002).

[7] = test system: tumor derived cell suspensions (TRAMP); experiment: Phage binding to TRAMP tumor derived cell suspensions; type: cell-based, mouse; conditions: phage clones
Procedure: as §4

TRAMP prostate tumors = experiment: In vivo phage homing to TRAMP prostate tumors; set-up: species or system mouse; conditions: i.v. injected phage clone
Procedure: as §2, §3

[8] = test system: K14-HPV16/E2 cervical lesions; experiment: Distribution of fluorescent peptides in K14-HPV16/E2 mice with cervical lesions; type: in vivo, mouse; conditions: for fluorescent peptide in normal cervix and control tissues: 100 μg i.v., 2 hrs; for fluorescent peptide in K14-HPV16/E2 cervical lesions/tumors (in words): labeled peptide i.v.
Procedure: The frozen sections were prepared for immunohistological analysis.

[9] = phage homing in vivo, K14-HPV16/E2 cervical cancer / cervical tumors
[10] = phage homing in vivo, K14-HPV16/E2 cervical dysplasia
[11] = phage homing in vivo, MDA-MB-435 orthotopic xenografts
[12] = listed as Fluoresceinlabeled LyP-2 peptide

Substance: D(KLAKLAK)2-CREAGRKAC (KLAKLAKKLAKLAKCREAGRKAC) [chimera of REA homing peptide with the pro-apoptotic motif D(KLAKLAK)2]
- number of tumor lymphatics (podoplanin staining) [1]: greatly reduced
- tumor blood vessel count/density (MECA-32 staining) [1]: unaffected
- tumor volume / tumor growth [1]: unaffected
- number of tumor lymphatics (podoplanin staining) ([1]; listed as REA conjugate): reduced the number of tumor lymphatics
- tumor blood vessel count/density (MECA-32 staining) ([1]; listed as REA conjugate): no effect
- tumor volume / tumor growth ([1]; listed as REA conjugate): no effect

Substance: CGNKRTRGC [LyP-1, previously described lymphatic homing peptide recognizing breast cancer lymphatics and tumor cells, reference compound]
- phage homing to K14-HPV16/E2 cervical tumors (in words) [2]: not to the cervical tumors
- phage homing to MDA-MB-435 tumors (in words) [3]: homes to the MDA-MB-435 tumors
- phage homing to MDA-MB-435 tumors (in words) ([3]; listed as LyP-1 phage): homed to MDA-MB-435 tumors
- phage binding to CXCR4-transfected 293T cells (in words) (CXCR4): did not bind
- phage homing to normal breast tissue (normal tissues): Neither phage homed
- phage homing to normal cervix (normal tissues): Neither phage homed
- homing to K14-HPV16 skin cancers (in words) (K14-HPV16 skin cancer): homed to the K14-HPV16 skin cancer lymphatics

Substance: CNRRTKAGC [LyP-2, homing peptide from K14-HPV16 dysplastic skin lesions; homes to cervical lesion lymphatics]
- phage homing to K14-HPV16/E2 cervical tumors (in words) [2]: homes to the cervical cancers and pre-malignant lesions
- phage homing to K14-HPV16/E2 cervical tumors (in words) ([2]; listed as LyP-2 phage): Significantly more; also recorded: robust homing
- Fold over control phage [2, 9]: 22 fold
- Specific Homing [2, 9]: Yes
- phage homing to K14-HPV16/E2 pre-malignant cervical lesions (in words) [4]: homes to the cervical cancers and pre-malignant lesions
- phage homing to K14-HPV16/E2 pre-malignant cervical lesions (in words) ([4]; listed as LyP-2 phage): Significantly more; also recorded: robust homing
- Fold over control phage [4, 10]: 17 fold
- Specific Homing [4, 10]: Yes
- Fold over control phage [3, 11]: 3 fold
- Specific Homing [3, 11]: No
- phage homing to normal breast tissue (normal tissues): Neither phage homed
- phage homing to normal cervix (normal tissues): Neither phage homed
- phage homing to normal cervix (normal tissues; listed as LyP-2 phage): not to normal cervix
- homing to K14-HPV16 skin cancers (in words) (K14-HPV16 skin cancer): homed to the lymphatics associated with dysplasias and squamous cell carcinomas in the skin; also recorded: homed to the K14-HPV16 skin cancer lymphatics

Substance: CLDGGRPKC
- binding to cell suspensions prepared from C8161 tumors (in words) [5]: bound to cell suspensions prepared from C8161 tumors
- phage homing to C8161 tumors (in words) (C8161 xenografts): homed selectively to the tumors

Substance: CASLSCR
- enrichment to pre-malignant TRAMP lesions relative to nonrecombinant phage (TRAMP PIN lesions): 12 fold
- binding to cell suspension from pre-malignant prostate lesions (in words) [6]: bound

Substance: CSGGKVLDC
- enrichment to pre-malignant TRAMP lesions relative to nonrecombinant phage (TRAMP PIN lesions): 14 fold
- binding to cell suspension from pre-malignant prostate lesions (in words) [6]: bound

Substance: CKTRVSCGV
- binding to TRAMP tumor derived cell suspensions (in words) [7]: robust binding
- enrichment in TRAMP tumors relative to nonrecombinant phage (TRAMP prostate tumors): about 30 fold

Substance: FITC-LyP-2: fluorescein-labeled LyP-2 peptide (CNRRTKAGC) ({FITC}-CNRRTKAGC; cysteine pairing not given here)
- fluorescent peptide in normal cervix and control tissues [8]: Little or no fluorescence
- fluorescent peptide in normal cervix and control tissues [8, 12]: No peptide accumulation was observed
- overlap with podoplanin in cervical lesions ([8]; fluorescein-labeled peptide): 82%
- co-localization with MECA-32 ([8]; fluorescein-labeled peptide, cervical lesions): not with MECA-32
- fluorescent peptide in K14-HPV16/E2 cervical lesions/tumors (in words) [8, 12]: accumulated in the cervical lesions
- fluorescent peptide in K14-HPV16/E2 cervical lesions/tumors (in words) ([8]; listed as fluorescein labeled-LyP-2 peptide): homes to cervical carcinoma

Substance: CSMSAKKKC
- binding to TRAMP tumor derived cell suspensions (in words) [7]: robust binding
- enrichment in TRAMP tumors relative to nonrecombinant phage (TRAMP prostate tumors): about 30 fold

— patent publication US8536132B2, “Lymphatic zip codes in tumors and pre-malignant lesions” (Sanford-Burnham Medical Research Institute, priority 2006, dated 2013)
